# Test results published in PubChem BioAssay (NCI).
#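 Growth conditions: 96-well plates. Treatment: test compound, 48 hours, 5 concentrations. Analysis: linear interpolation between bracketing concentrations; unreached endpoints set to highest concentration. GI50 is the concentration that inhibits growth by half. TGI denotes the concentration required for complete inhibition of growth.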
# Columns and labels:
# Assay in all cases: inhibition of tumour cell growth, NCI panel, 48 h
# HCT-15 colon = test system: HCT-15 colon
# CCRF-CEM leukemia = test system: CCRF-CEM leukemia
# NCI-H460 lung = test system: NCI-H460 lung
# SNB-19 CNS = test system: SNB-19 CNS
# A549 NSCLC = test system: A549 NSCLC
# SF-539 CNS = test system: SF-539 CNS
# A498 renal = test system: A498 renal
# HL-60(TB) leukemia = test system: HL-60(TB) leukemia
# UO-31 renal = test system: UO-31 renal
# SK-MEL-5 melanoma = test system: SK-MEL-5 melanoma
SMILES,GI50 (HCT-15 colon) [µM],TGI (HCT-15 colon) [µM],GI50 (CCRF-CEM leukemia) [nM],TGI (CCRF-CEM leukemia) [µM],GI50 (NCI-H460 lung) [µM],TGI (NCI-H460 lung) [µM],GI50 (SNB-19 CNS) [µM],TGI (SNB-19 CNS) [µM],GI50 (A549 NSCLC) [µM],TGI (A549 NSCLC) [µM],GI50 (SF-539 CNS) [nM],TGI (SF-539 CNS) [µM],GI50 (A498 renal) [µM],TGI (A498 renal) [µM],GI50 (HL-60(TB) leukemia) [nM],TGI (HL-60(TB) leukemia) [µM],GI50 (UO-31 renal) [µM],TGI (UO-31 renal) [µM],GI50 (SK-MEL-5 melanoma) [nM],TGI (SK-MEL-5 melanoma) [µM]
O=C(Nc1cc(F)c(F)cc1C(=O)O)c1ccc(-n2ccnc2)nn1,> 100,> 100,98200,> 100,> 100,> 100,> 100,> 100,> 100,> 100,34400,> 100,13,82,38900,> 100,> 100,> 100,> 100000,> 100
Fc1ccc(-c2nn3ccccc3c2-c2ccncc2)cc1,> 25,> 25,> 25000,> 25,> 25,> 25,> 25,> 25,> 25,> 25,> 25000,> 25,> 18.3,> 25,> 25000,> 25,8.26,> 25,> 22800,> 25
c1ccc2c(c1)Cc1c(Cc3csc4ccccc34)ccc3cccc-2c13,,> 100,,> 100,,> 100,,> 100,,> 100,,> 100,,,,> 100,,> 100,,> 100
COc1cc(/C=C(\NC(=O)c2ccccc2)c2nc3ncncc3[nH]2)cc(OC)c1OC,,> 100,,> 100,,,,> 100,,> 100,,> 100,,,,> 100,,> 100,,> 100
COc1ccccc1/C=C\C(=O)C1COCN1 (centres undefined),,35.8,,> 100,,> 100,,33.9,,48.8,,38.5,,,,> 100,,44,,25.1
CC1(C)C(=O)C(C)(C)C1=NNC(N)=S,,> 100,,,,> 100,,> 100,,> 100,,> 100,,,,> 100,,> 100,,> 100
CCN1C(=O)N(CC)C2C1NN=c1s/c(=C3\C(=O)N(C4CCCC4)c4ccccc43)c(=O)n12 (centres undefined),0.479,> 100,2020,57.5,0.906,> 100,3.47,40.5,1.55,> 100,484,2.4,0.198,0.854,1760,4.94,,,,
O=C(Nc1cc(Cl)ccc1O)c1ccccc1Nc1ccnc(C(F)(F)F)c1,3.55,> 100,3120,9.63,2.99,9.92,2.88,10.3,3.38,13.1,2700,9.16,2.25,6.4,1460,4.36,,,2100,4.27
CC1(C)c2ccccc2N2O[C@@H]3C(=O)N(c4ccccc4)C(=O)[C@@H]3C21c1ccccc1 (some centres undefined),,> 100,,> 100,,,,> 100,,> 100,,> 100,,,,> 100,,> 100,,> 100
Cc1c2ccncc2c(C)c2c1sc1ccccc12,,31,,30.4,,14.3,,26.7,,18.3,,21.1,,23.1,,17.3,,,,23.1
CN(C)Cc1ccc(NC(=O)c2cncc(C#Cc3cnc(N)c4ncccc34)c2)cc1F,1.73,3.35,2290,6.66,1.93,3.63,,,2.57,7.11,1530,3.07,6,29,7330,35.7,2.38,4.08,1700,3.29
CCc1cc2c(O)c(c1)Cc1cc(CC)cc(c1O)Cc1cc(CC)cc(c1O)Cc1cc(CC)cc(c1O)Cc1cc(CC)cc(c1O)Cc1cc(CC)cc(c1O)Cc1cc(CC)cc(c1O)C2,,> 100,,> 100,,> 100,,71.7,,> 100,,> 100,,,,> 100,,> 100,,> 100
Nc1nc2c(-c3ccc([N+](=O)[O-])cc3)nnn2c2ccccc12,,> 100,,,,> 100,,> 100,,> 100,,> 100,,> 100,,> 100,,> 100,,
CC(=O)Nc1ccc(S(=O)(=O)N=S(C)C)cc1,,> 100,,> 100,,> 100,,> 100,,> 100,,> 100,,> 100,,> 100,,> 100,,
O=C(N/C(=C\c1ccccc1O)c1nc2ccccc2[nH]1)c1ccccc1,,> 100,,> 100,,> 100,,> 100,,> 100,,> 100,,> 100,,,,> 100,,> 100
C(=C\C(Sc1ccccc1)c1ccccc1)/NNC1=NC(c2ccccc2)C(c2ccccc2)=NN1 (centres undefined),,> 100,,49.5,,> 100,,> 100,,> 100,,> 100,,,,37.6,,> 100,,> 100
N#Cc1nc(C#N)c(Sc2ccccc2)c(Sc2ccccc2)c1Sc1ccccc1,0.574,3.21,417,> 100,2.35,> 27.6,2.5,5.9,,,399,1.31,2.72,7.05,1880,> 29.5,0.415,1.08,1310,2.69
CCCCCCCCCCCCN=C(N)c1ccc(N2CCN(c3ccc(C(N)=NCCCCCCCCCCCC)cc3)CC2)cc1,35,> 50,1560,10.9,13.8,> 50,11,20.5,11.1,30.5,,,,,2150,> 50,22.6,> 50,10500,21.1

SMILES,GI50 (HCT-15 colon) [µM],TGI (HCT-15 colon) [µM],GI50 (CCRF-CEM leukemia) [nM],TGI (CCRF-CEM leukemia) [µM],GI50 (NCI-H460 lung) [µM],TGI (NCI-H460 lung) [µM],GI50 (SNB-19 CNS) [µM],TGI (SNB-19 CNS) [µM],GI50 (A549 NSCLC) [µM],TGI (A549 NSCLC) [µM],GI50 (SF-539 CNS) [nM],TGI (SF-539 CNS) [µM],GI50 (A498 renal) [µM],TGI (A498 renal) [µM],GI50 (HL-60(TB) leukemia) [nM],TGI (HL-60(TB) leukemia) [µM],GI50 (UO-31 renal) [µM],TGI (UO-31 renal) [µM],GI50 (SK-MEL-5 melanoma) [nM],TGI (SK-MEL-5 melanoma) [µM]
NS(=O)(=O)c1ccc(NC(=O)C2C(=O)C(=O)N(c3ccc(S(N)(=O)=O)cc3)C2=O)cc1 (centres undefined),,> 100,,> 100,,,,> 100,,> 100,,> 100,,> 100,,,,> 100,,> 100
COS(C)(=O)=O,,> 2,,> 2,,> 2,,> 2,,> 2,,> 2,,> 2,,> 2,,> 2,,
COc1ccc(OC)c(/C=C2\CCc3ccccc3C2=O)c1,,29.3,,14.8,,27.5,,28.9,,65.6,,9.95,,19.7,,5.96,,,,12.4
NC(Cc1c[nH]c2ccc([N+](=O)[O-])cc12)C(=O)O (centres undefined),,> 100,,> 100,,,,> 100,,> 100,,,,> 100,,> 100,,> 100,,> 100
Cc1ccc(/C=C/C(=O)c2sc(-n3nc(-c4ccccc4)cc3-c3ccccc3)nc2C)cc1,,> 100,,> 100,,> 100,,,,> 100,,> 100,,> 100,,> 100,,> 100,,> 100
COc1cc([N+](=O)[O-])c(S(=O)(=O)O)cc1-n1nc(C(=O)Nc2ccccc2)n[n+]1-c1cc(S(=O)(=O)[O-])c([N+](=O)[O-])cc1OC,,> 100,,> 100,,> 100,,> 100,,> 100,,,,,,> 100,,> 100,,> 100
O=C(Nc1cc(Cl)cc(Cl)c1)c1cccc(NC2=C(Cl)C(=O)N(Cc3ccccc3)C2=O)c1,24,> 100,4090,> 100,33.2,> 100,54,> 100,36.3,> 100,,,22.2,50.7,,,16.9,> 100,16600,34.8
Cc1ccc(N=C2N=C(N3CC(C)OC(C)C3)c3ccccc32)cc1 (centres undefined),,> 100,,66.8,,> 100,,> 100,,> 100,,38.1,,90.1,,,,54.2,,48.5
COc1ccc(S(=O)(=O)Nc2c(/C=C\c3cc(OC)c(OC)c(OC)c3)ccc(OC)c2O)cc1,0.0366,> 100,30.1,> 100,0.0368,13.7,0.0602,> 100,0.0459,> 100,,,0.0188,0.085,23.5,0.0779,0.0619,62.4,36.3,0.201
CC(C)OC/N=C(/N)NC#N,,33.7,,,,> 100,,> 100,,> 100,,> 100,,> 100,,> 100,,> 100,,> 100
CCCCCCCCCCCCCCCC(=O)OCCOCCOCCOCCOCCOC(=O)CCCCCCCCCCCCCCC,,> 100,,> 100,,> 100,,> 100,,> 100,,,,> 100,,> 100,,> 100,,> 100
COc1cc2c(c(OC)c1OC)-c1ccc(SC)c(=O)cc1[C@@H](NC(=O)C(F)(F)F)CC2,,> 15.8,,> 100,,,,> 100,,> 100,,< 0.01,,1.86,,0.194,,> 95.7,,0.138
[N-]=[N+]=NCCCn1c2c(c3ccc([N+](=O)[O-])cc3c1=O)C(=O)c1cc(-c3ccccc3)ccc1-2,> 100,> 100,> 100000,> 100,> 100,> 100,> 100,> 100,> 100,> 100,> 100000,> 100,> 100,> 100,,,> 100,> 100,89000,> 100
CC1=C(C(=O)Nc2ccc(F)c(Cl)c2)C(c2cccc(Oc3ccccc3)c2)NC(=S)N1 (centres undefined),11.5,33.2,17700,47.6,13.5,33.6,32.2,> 50,13.7,> 50,18700,44,,,17400,> 50,13.3,44.3,10200,19.6
C[N+](C)(C)c1cc[c]([Sn]([c]2ccc([N+](C)(C)C)cc2)([c]2ccc([N+](C)(C)C)cc2)[c]2ccc([N+](C)(C)C)cc2)cc1,> 100,> 100,,,> 100,> 100,> 100,> 100,> 100,> 100,> 100000,> 100,> 100,> 100,> 100000,> 100,> 100,> 100,> 100000,> 100
CC1=CP(=O)(c2ccccc2)C=C(C)C1=C(Cl)Cl (centres undefined),,,,19.2,,59.1,,32.8,,> 100,,88.6,,,,5.61,,,,31.2
O=C1C=C(OCC=C(C(F)(F)F)C(F)(F)F)c2ccccc2C1=O,2.06,5.7,1170,5.22,,,5.62,19.5,5.91,27,1840,3.63,4.36,16.6,2440,6.49,1.53,3.1,1510,2.95
COCCc1n(Cc2ccc3ccccc3c2)c2ccccc2[n+]1Cc1ccc2ccccc2c1,,,,,,,,,1.46,3.03,,,1.54,2.98,,,1.48,2.88,371,1.36
